This assay deals with T1, JAK2 KD kinase (Homo sapiens, UniProt O60674).
T1 construct: JAK2 KD (kinase domain); inferred from Ni-NTA capture and imidazole elution; made in house; host or cells: Sf9 insect cells
As to the kind of experiment: JAK2 Luminescence-Based ATP Depletion Enzyme Assay (JAK2-WT). Conditions: 10 μM ATP. It is filed as biochemical. As to the method: JAK2 Luminescence-Based ATP Depletion Enzyme Assay
Materials: JAK3tide peptide substrate=GGEEEEYFELVKKKK (Biopeptide, San Diego, Calif.), ATP (Sigma Cat#A-3377, FW=551), HEPES buffer, pH 7.6, 10% Brij 35 (Calbiochem Cat#203728), MgCl2, Staurosporine (Streptomyces sp. Sigma Cat#85660-1MG), white Corning (Costar) 384-well flat bottom plate (VWR Cat#29444-088), JAK2 KD (kinase domain) or JAK2 JH1JH2 V617F kinase (see below), Kinase-Glo™ (Promega Cat#V6712).
Stock Solutions: 5 mM JAK3tide peptide (9.86 mg/ml in 100 mM HEPES, pH 7.6), stored at −20° C.; 100 mM HEPES buffer, pH 7.6, 10% Brij 35; 10 mM ATP (5.51 mg/ml in 100 mM HEPES, pH 7.6) stored at −20° C. (diluted 50 μl into total of 10 ml 100 mM HEPES, pH 7.6, daily=50 μM ATP working stock); 100 mM MgCl2; 200 μM Staurosporine, 2× Kinase-Glo™ reagent (made fresh or stored at −20° C.).
Standard Assay Conditions for 384-well format (20 μl kinase reaction, 40 μl detection reaction): 10 mM MgCl2; 0.1 mM JAK3tide peptide (or, 0.5 mM JAK3tide peptide for JAK2 JH1JH2 V617F assay); 1 μl test compound (in 100% DMSO); 0.4 μg/ml JAK2 KD kinase or 12 μg/ml JAK2 JH1JH2 V617F kinase; 10 μM ATP; 100 mM HEPES+0.01% Brij, pH 7.6. Positive controls contained 5% DMSO with no test compound. Negative controls contained 10 μM staurosporine. The kinase reactions were initiated at time t=0 by the addition of ATP. Kinase reactions were incubated at 21-23° C. for 30 min, after which 20 μl of Kinase-Glo™ reagent were added to each well to quench the kinase reaction and initiate the luminescence reaction. After a 20 min incubation at 21-23° C., the luminescence was detected in a plate-reading luminometer (Tecan Ultra Evolution).
The pellet of Sf9 insect cells produced from a 6 L expression of Jak2 was resuspended in a buffer containing 50 mM Tris-HCl pH 8.5, 250 mM NaCl, 5% Glycerol, 0.2% β-octylglucoside, 5 mM β-mercaptoethanol (or with ligand added to the buffer eg. 5 mM ATP and 10 mM MgCl2; 0.05 mM compound of the invention) in a volume of approximately 40 mL per 1 L of original culture. One tablet of Roche Complete, EDTA-free protease inhibitor cocktail (Cat. #1873580) was added per 1 L of original culture. The suspension was then stirred for 1 hour at 4° C. Debris was removed by centrifugation for 30 minutes at 39,800 g at 4° C. The supernatant was decanted into a 500 mL beaker and 10 mL of 50% Qiagen Ni-NTA Agarose (Cat. #30250) pre-equilibrated in 50 mM Tris-HCl pH 8.5, 250 mM NaCl, 5% Glycerol, 0.2% β-octylglucoside, 5 mM β-mercaptoethanol was added and stirred for 30 minutes at 4° C. The sample was poured through a drip column at 4° C. and washed with 10 column volumes (CV) of 50 mM Tris-HCl pH 8.5, 250 mM NaCl, 5% Glycerol, 0.2% β-octylglucoside, 5 mM β-mercaptoethanol. The protein was eluted in 5 mL fractions using 5 CV of the same buffer containing 250-500 mM Imidazole. Fractions were pooled by SDS-PAGE analysis and the protein concentration determined by a Bradford assay. 5 mM TCEP was added to the pool and the protein sample was concentrated to ˜8 mL by centrifugation in an Amicon Ultra-15 10,000 Da MWCO centrifugal filter unit (Cat. #UFC901024). The concentrated protein was applied to a GE Healthcare HiLoad 16/60 Superdex 75 or 200 prep grade column (Cat. #17-1068-01, Cat. #17-1069-01) equilibrated in 20 mM Tris-HCl pH 8.5, 250 mM NaCl, and 1 mM DTT. Fractions were run on a SDS-PAGE gel and the cleanest fractions were pooled. The protein was concentrated to approximately 6.5-10 mg/mL. Samples in the final buffer (20 mM Tris-HCl pH 8.5, 250 mM NaCl, 1 mM DTT; [or with ligand added eg. 2 mM ATP/5 mM MgCl2 or 0.05 mM compound of the invention]) are delivered fresh to crystallization and stored at 4° C. or flash frozen in liquid nitrogen (as 120 μL aliquots) and stored at −80° C.

T1 sequence (O60674 849-1124 limits assumed): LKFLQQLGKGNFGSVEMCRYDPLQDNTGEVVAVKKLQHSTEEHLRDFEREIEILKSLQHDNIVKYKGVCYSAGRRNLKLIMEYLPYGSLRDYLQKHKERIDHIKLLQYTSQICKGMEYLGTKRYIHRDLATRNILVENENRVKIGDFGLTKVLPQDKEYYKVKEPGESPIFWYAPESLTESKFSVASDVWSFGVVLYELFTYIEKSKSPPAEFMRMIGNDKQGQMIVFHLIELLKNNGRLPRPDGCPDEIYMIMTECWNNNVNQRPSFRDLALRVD

For the molecule `CCN(CCC#N)C(=O)c1ccc(-c2ccnc(Nc3cccc(C(C)O)c3)n2)s1` (stereo not shown), the 50% inhibitory concentration (IC50) is below 100 nM.

The molecule `CCC(=O)Nc1ccc(-c2ccnc(Nc3cccc(C)c3)n2)s1` displayed a 50% inhibitory concentration (IC50) below 100 nM. As to `CC(O)c1cccc(Nc2nccc(-c3ccc(-c4cccc(CC#N)c4)s3)n2)c1` (stereo not shown), the half-maximal inhibitory concentration (IC50) is below 100 nM. For `CC(O)c1cccc(Nc2nccc(-c3ccc(S(=O)(=O)N(C)C)s3)n2)c1` (stereo not shown), the half-maximal inhibitory concentration (IC50) is below 100 nM.

`CN(C)C1CCN(c2cccc(Nc3nccc(-c4ccc(C(=O)NCc5ccco5)s4)n3)c2)C1` (stereo not shown) registered an IC50 below 100 nM. Under `CCN(CCC#N)S(=O)(=O)c1ccc(-c2ccnc(Nc3cccc(C(C)O)c3)n2)s1` (stereo not shown) stands below 100 nM.

On to `CC(O)c1cccc(Nc2nccc(-c3ccc(-c4cccnc4)s3)n2)c1` (stereo not shown), for which the IC50 was below 100 nM. Under `CN(Cc1ccccc1)C(=O)c1ccc(-c2ccnc(Nc3ccc(CCO)cc3)n2)s1` stands below 100 nM; under `C[C@@H](NC(=O)c1ccc(-c2ccnc(Nc3cccc(CN4CCN(CCO)CC4)c3)n2)s1)c1ccccc1`, below 100 nM; under `OC1CCN(Cc2cccc(Nc3nccc(-c4ccc(CNc5ccccc5Cl)s4)n3)c2)CC1`, below 100 nM. Under `CNC(=O)c1ccc(-c2ccc(-c3ccnc(Nc4cccc(C(C)O)c4)n3)s2)cc1` (stereo not shown) stands below 100 nM. Under `CCN(CCC#N)S(=O)(=O)c1ccc(-c2ccnc(Nc3cccc(C)c3)n2)s1` stands below 100 nM; under `O=C(NCc1ccccc1)c1ccc(-c2ccnc(Nc3ccc(CCO)cc3)n2)s1`, below 100 nM; under `CC(O)c1cccc(Nc2nccc(-c3ccc(S(=O)(=O)Cc4ccccc4)s3)n2)c1` (stereo not shown), below 100 nM. `C[C@@H](NC(=O)c1ccc(-c2ccnc(Nc3cccc(CN4CCC(O)CC4)c3)n2)s1)c1ccccc1` came in with an IC50 below 100 nM. Consider `CC(O)c1cccc(Nc2nccc(-c3ccc(-c4ccncc4)s3)n2)c1` (stereo not shown), for which the IC50 is below 100 nM.

Source of the values: patent US7977481B2, “Pyrimidinyl-thiophene kinase modulators” (SGX Pharmaceuticals, Inc., priority 2005, dated 2011).
